In ChEMBL document CHEMBL4229562, “Introduction of a Methyl Group Curbs Metabolism of Pyrido[3,4- d]pyrimidine Monopolar Spindle 1 (MPS1) Inhibitors and Enables the Discovery of the Phase 1 Clinical Candidate N2-(2-Ethoxy-4-(4-methyl-4 H-1,2,4-triazol-3-yl)phenyl)-6-methyl- N8-neopentylpyrido[3,4- d]pyrimidine-2,8-diamine …” (J Med Chem, 2018):
Values after ≈ are worked out from the molar mass of the structure shown.

Key:
[1] = biological target: T1, Dual specificity protein kinase TTK (Homo sapiens, UniProt P33981)
T1 sequence (P33981 whole entry): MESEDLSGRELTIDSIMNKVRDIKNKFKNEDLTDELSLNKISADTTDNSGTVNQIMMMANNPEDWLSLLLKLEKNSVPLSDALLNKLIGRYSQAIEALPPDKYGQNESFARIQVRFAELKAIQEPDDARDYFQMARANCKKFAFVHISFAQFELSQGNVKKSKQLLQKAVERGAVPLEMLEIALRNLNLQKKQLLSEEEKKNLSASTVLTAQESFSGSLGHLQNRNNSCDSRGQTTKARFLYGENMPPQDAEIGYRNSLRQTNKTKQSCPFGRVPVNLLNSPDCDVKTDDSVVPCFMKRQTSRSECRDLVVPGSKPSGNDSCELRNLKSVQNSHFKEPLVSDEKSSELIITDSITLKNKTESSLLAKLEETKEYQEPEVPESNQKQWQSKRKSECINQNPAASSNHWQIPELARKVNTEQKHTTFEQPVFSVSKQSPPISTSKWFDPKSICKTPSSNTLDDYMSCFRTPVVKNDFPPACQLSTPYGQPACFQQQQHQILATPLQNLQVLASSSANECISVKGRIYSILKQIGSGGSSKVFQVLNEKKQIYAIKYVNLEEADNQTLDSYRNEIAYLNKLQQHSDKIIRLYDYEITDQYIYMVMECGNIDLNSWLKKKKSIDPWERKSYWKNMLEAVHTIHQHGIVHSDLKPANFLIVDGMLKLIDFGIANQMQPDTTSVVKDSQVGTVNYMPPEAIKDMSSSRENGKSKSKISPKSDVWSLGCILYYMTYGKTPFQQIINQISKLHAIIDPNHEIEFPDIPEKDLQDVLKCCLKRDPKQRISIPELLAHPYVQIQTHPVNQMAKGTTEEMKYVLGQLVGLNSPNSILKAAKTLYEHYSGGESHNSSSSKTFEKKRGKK
Description: Inhibition of full length human N-terminal 6xHis-tagged MPS1 expressed in baculovirus expression system using 5FAM-H236 peptide as substrate after 60 to 90 mins by caliper assay

[2] = Lipophilicity, log P of the compound; type: physicochemical; conditions: octanol/water
[3] = biological target: T1, Dual specificity protein kinase TTK; remark: listed apart in the source
Description: Inhibition of MPS1 autophosphorylation at Thr33/Ser37 in human HCT116 cells after 2 hrs by MSD assay

CDK2/Cyclin A2 = CDK2/Cyclin A2 (Homo sapiens, UniProt P24941)
Canis familiaris [4] = assay: Volume of distribution at steady state in dog at 1 mg/kg, iv by ESI-LCMS/MS analysis; type: ADME, organism-based, Canis lupus familiaris; conditions: in vivo
Canis familiaris [5] = assay: Half life in dog at 1 mg/kg, iv by ESI-LCMS/MS analysis; type: ADME, organism-based, Canis lupus familiaris; conditions: in vivo
[6] = Oral bioavailability in dog at 5 mg/kg by ESI-LCMS/MS analysis; type: ADME, organism-based, Canis lupus familiaris; conditions: in vivo
[7] = Cmax in dog at 5 mg/kg, po by ESI-LCMS/MS analysis; type: ADME, organism-based, Canis lupus familiaris; design: dose 5 mg/kg, route oral; conditions: in vivo
[8] = AUClast in dog at 5 mg/kg, po measured after 48 hrs by ESI-LCMS/MS analysis; type: ADME, organism-based, Canis lupus familiaris; conditions: in vivo
[9] = Intrinsic clearance in CD1 mouse liver microsomes assessed per mg protein at 1 uM preincubated for 10 mins followed NADPH/UDP-glucuronic acid addition and measured after 30 mins by LC-MS/MS analysis; type: ADME, microsome; conditions: 0.5 h
[10] = Solubility of the compound in PBS buffer at pH 7.4 by HPLC analysis; type: physicochemical
[11] = Clearance in mouse at 5 mg/kg, iv by ESI-LCMS/MS analysis; type: ADME, organism-based; conditions: in vivo
[12] = AUClast in rat at 5 mg/kg, po measured after 24 hrs by ESI-LCMS/MS analysis; type: ADME, organism-based; conditions: in vivo
[13] = Clearance in rat at 5 mg/kg, iv by ESI-LCMS/MS analysis; type: ADME, organism-based; conditions: in vivo
Rattus norvegicus [14] = assay: Oral bioavailability in rat at 5 mg/kg by ESI-LCMS/MS analysis; type: ADME, organism-based; conditions: in vivo
[15] = Cmax in rat at 5 mg/kg, po by ESI-LCMS/MS analysis; type: ADME, organism-based; design: dose 5 mg/kg, route oral; conditions: in vivo
Rattus norvegicus [16] = assay: Half life in rat at 5 mg/kg, iv by ESI-LCMS/MS analysis; type: ADME, organism-based; conditions: in vivo
[17] = Intrinsic clearance in human liver microsomes assessed per mg protein at 1 uM preincubated for 10 mins followed NADPH/UDP-glucuronic acid addition and measured after 30 mins by LC-MS/MS analysis; type: ADME, microsome; conditions: 0.5 h
Mus musculus [18] = assay: Oral bioavailability in mouse at 5 mg/kg by ESI-LCMS/MS analysis; type: ADME, organism-based; conditions: in vivo
[19] = Protein binding in mouse plasma; type: ADME, cell-free
Mus musculus [20] = assay: Half life in mouse at 5 mg/kg, iv by ESI-LCMS/MS analysis; type: ADME, organism-based; conditions: in vivo
[21] = Cmax in mouse at 5 mg/kg, po by ESI-LCMS/MS analysis; type: ADME, organism-based; design: dose 5 mg/kg, route oral; conditions: in vivo
[22] = Volume of distribution at steady state in rat at 5 mg/kg, iv by ESI-LCMS/MS analysis; type: ADME, organism-based; conditions: in vivo, read-out: Vdss
[23] = Volume of distribution at steady state in mouse at 5 mg/kg, iv by ESI-LCMS/MS analysis; type: ADME, organism-based; conditions: in vivo, read-out: Vdss
[24] = AUClast in mouse at 5 mg/kg, po measured after 6 hrs by ESI-LCMS/MS analysis; type: ADME, organism-based; conditions: in vivo
Rattus norvegicus [25] = assay: Half life in rat at 1 mg/kg, iv by ESI-LCMS/MS analysis; type: ADME, organism-based; conditions: in vivo
[26] = Volume of distribution at steady state in rat at 1 mg/kg, iv by ESI-LCMS/MS analysis; type: ADME, organism-based; conditions: in vivo, read-out: Vdss
[27] = Drug level in human liver microsomes treated with 1 uM N2-(2-Methoxy-4-(4-methyl-4H-1,2,4-triazol-3-yl)phenyl)-N8-neopentylpyrido[3,4-d]pyrimidine-2,8-diamine assessed as compound formation preincubated for 10 mins followed NADPH/UDP-glucuronic acid addition and measured after 30 mins by LC-MS/MS analysis; type: ADME, microsome; conditions: 0.5 h

IC50 [1] [nM]	Ki [1] [nM]	logP [2]	IC50 [3] [nM]	IC50 (CDK2/Cyclin A2) [nM]	Ki (CDK2/Cyclin A2) [nM]	CLH [9] [µL/min/mg]	solubility [10] [µM]	CLH [17] [µL/min/mg]	Structure (SMILES)	also measured
400	4	3.58	3800	26000	13000				CCOc1cc(-c2nncn2C)ccc1Nc1ncc2cc(C)nc(N3CCC3(C)C)c2n1	
									CCOc1cc(-c2nncn2C)ccc1Nc1ncc2cc(C)nc(NCC(C)(C)C)c2n1.Cl.Cl	Vdss (Canis familiaris [4]): 1.1 L/kg; t1/2 (Canis familiaris [5]): 12 h; bioavailability [6]: 100%; Cmax [7]: 7770 nM; AUC(0-t) at 48 h [8]: 147 µM·h
8.9	0.088	3.85	37	1600	810	44.3	31.5 (≈ 14 µg/mL)	25.2	CCOc1cc(-c2nncn2C)ccc1Nc1ncc2cc(C)nc(N3CC(C)(C)C3)c2n1	clearance [11]: 16.3 mL/min/kg; AUC(0-t) at 24 h [12]: 18.3 µM·h; clearance [13]: 7.35 mL/min/kg; F (Rattus norvegicus [14]): 72%; Cmax [15]: 1420 nM; t1/2 (Rattus norvegicus [16]): 3.03 h; F (Mus musculus [18]): 75%; PPB [19]: 99.28%; t1/2 (Mus musculus [20]): 1.58 h; Cmax [21]: 2350 nM; Vd [22]: 1.88 L/kg; Vd [23]: 2.09 L/kg; AUC(0-t) at 6 h [24]: 8.11 µM·h
12	0.12	4.49	33	940	470	32.9	1.8 (≈ 0.829 µg/mL)	20.4	CCOc1cc(-c2nnc(C)n2C)ccc1Nc1ncc2cc(C)nc(NCC(C)(C)C)c2n1	
83	0.82	3.58	370	1100	550				CCOc1cc(-c2nncn2C)ccc1Nc1ncc2cc(C)nc(N3CCCC3)c2n1	
20	0.2	3.25	110	2700	1400	24.7	6.8 (≈ 3.1 µg/mL)	5.6	CCOc1cc(-c2nncn2C)ccc1Nc1ncc2cc(C)nc(N3CC(C)(C#N)C3)c2n1	
4.7	0.047	4.61	23	150	77	25.3		15.2	CCOc1cc(-c2nncn2C)ccc1Nc1ncc2cc(C)nc(N[C@@H](C)C(C)(C)C)c2n1	clearance [11]: 8.4 mL/min/kg; t1/2 (Rattus norvegicus [25]): 4.52 h; F (Rattus norvegicus [14]): 92%; Cmax [15]: 1890 nM; F (Mus musculus [18]): 86%; PPB [19]: 99.91%; Vd [26]: 1.88 L/kg; t1/2 (Mus musculus [20]): 3.47 h; Cmax [21]: 2920 nM; Vd [23]: 2.19 L/kg; AUC(0-t) at 6 h [24]: 13.8 µM·h
									COc1cc(-c2nnc(O)n2C)ccc1Nc1ncc2ccnc(NCC(C)(C)C)c2n1	Drug uptake [27]: Active
38	0.38	4.75	250	> 10000	> 5000	36.4		18.6	CCOc1cc(-c2nnc3n2CCC3)ccc1Nc1ncc2cc(C)nc(NCC(C)(C)C)c2n1	
19	0.19	4.4	240	250	130	28.8	1.7 (≈ 0.78 µg/mL)	28.8	COc1cc(-c2nnc3n2CCC3)ccc1Nc1ncc2cc(C)nc(NCC(C)(C)C)c2n1	
